2 molecules from patent US20230097883A1, “ERGOTHIONEINE PET COMPOUNDS AND METHODS OF USE THEREOF” (VANDERBILT UNIVERSITY, priority 2021, published 2023) can be followed below.

The subject of one experiment is Abeta. Nature of the experiment: [11C]PIB PET imaging of Abeta levels after ERGO treatment. Format: in vivo, mouse. The procedure:
To address our primary question whether longitudinal consumption of ERGO as a potent antioxidant benefit the brain, three cohorts of animals (n=12 non-treated WT control, n=12 non-treated 5XFAD, and n=18 ERGO-treated 5XFAD) were used (FIG. 3.2A). Starting at the age of 8 weeks, the animals were treated with high doses of ERGO solution (25-50 mg/Kg) formulated in double distilled (dd) water via oral gavage three times a week over the course of eight weeks. To reduce bias in the behavioral experiments with regard to the potential stress during gavage treatment, non-treated animals underwent the identical gavage process with the vehicle, water, only. The efficacy of the therapy was evaluated by behavioral testing, followed by three different non-invasive PET imaging sessions to assess biomarkers related to AD pathology. […]
Non-invasive, in vivo, and robust assessment of Abeta levels in the brains of treated and non-treated 5XFAD mice were performed using the [^11C]PIB PET probe, the chemical structure of which has been described elsewhere. […] We co-registered the PET/CT image to an MRI template for quantitative PET analysis of regional uptake in the brain. […]

Another experiment relates to oxidative stress. The experiment is described as follows: PET imaging of LPS-induced neuroinflammation with [11C]ERGO radioligand, with Tempol blocking. The note with it: LPS 5 mg/Kg i.p. 24 h before; 20 MBq/0.1 mL I.V.; 30 min scan from 10 min after injection. Format: in vivo, mouse. The procedure: The mice were injected with ˜20 MBq/0.1 ml 11C-ERGO via the tail vein and returned to their cages for 10 min. Then they were anesthetized with 2% isofluorane and imaged in an Inveon microPET (Siemens Pre-clinical, Knoxville, Tenn., USA) for 30 min in static mode followed by a CT scan using a NanoSPECT/CT (Mediso, Wash. D.C.) at an x-ray beam intensity of […] and x-ray voltage of 45 kVp. PET images were reconstructed using the iterative MAP reconstruction algorithm with 18 iterations and a beta smoothing value of 0.001 into 128×128×95 slices with a voxel size of 0.388 mm×0.388 mm×0.796 mm. The CT images were reconstructed into 170×170×126 slices at a voxel size of 0.4×0.4×0.4 mm^3. The PET and CT images were co-registered using the imaging tool AMIDE.
The mouse model of LPS-induced neuroinflammation was developed based on past reports. The LPS derived from Escherichia coli […] (Sigma Aldrich, St Louis, Mo.) was formulated in sterilized dd. water and given a high dose of LPS formulation (5 mg/Kg) through intraperitoneal injection 24 h before PET imaging. This high dose would result in approximately 12-13% body weight loss over the course of 24 h. After PET imaging, animals were sacrificed, and the brains were collected for histology analysis.
The reported LPS mouse model of neuroinflammation in the past was reproduced for the validation of the specificity of the probe. […]

Regarding `C[N+](C)(C)[C@@H](Cc1c[nH]c(=S)[nH]1)C(=O)[O-]` [ERGO, L-ergothioneine], the “[11C]PIB PET signal in brain” value with Abeta (ERGO-treated 5XFAD, 4-month-old, n=7, ~15 MBq [11C]PIB) is “very weak, and resembled the background signal found in WT mice”. In addition, the “[11C]PIB % ID/g higher in non-treated 5XFAD compared to treated counterparts, every brain subregion” value with Abeta (non-treated n=5 versus ERGO-treated n=7 5XFAD mice) is recorded as 30-50%.

Regarding `C[N+](C)([11CH3])[C@@H](Cc1c[nH]c(=S)[nH]1)C(=O)[O-]` [[^11C]ERGO], the “PET signal in brain regions, LPS-treated versus nontreated WT mice” value in the experiment on oxidative stress is reported as “stronger than that from nontreated counterparts across every major region of the brain”.
